Data as given in publication PMC9681820, “A PDE10A inhibitor CPL500036 is a novel agent modulating striatal function devoid of most neuroleptic side-effects” (Frontiers in Pharmacology, 2022).

Columns and labels:
[1] = test system: Salmonella typhimurium TA1537; assay: Ames test; conditions: CPL500036 5000µg/plate, n=3
serotonin receptor 1A = molecular target: T1, serotonin receptor 1A (Homo sapiens, UniProt P08908); assay: SafetyScreen44 radioligand binding; conditions: agonist radioligand, read-out: % Inh (% inhibition of control specific binding)
T1 construct: purchased Eurofins Cerep (SafetyScreen44)
Description: (§1) The SafetyScreen44® assay was carried out by Eurofins (Poitiers, France) according to the service-provider’s protocol. CPL500036 (1 µM) was tested against a panel of […] potential off-targets proteins, including G protein-coupled receptors (GPCRs), transporters, ion channels, nuclear receptors kinases and other non-kinase enzymes, by use of a set of the binding assays.
(§2) Binding of CPL500036 was calculated as the percent binding inhibition of a radioactively labeled ligand specific for each target. Enzyme inhibition of CPL500036 was calculated as the percent inhibition of the activity of the control enzyme. “No interaction” was denoted if inhibition ≤ 25% of specific binding of the control. Determination of muscarinic acetylcholine receptor (M2) activity induced by CPL500036 (antagonism and agonism) was undertaken in human recombinant CHO cells by measurement of the intracellular cAMP level according to the service-provider’s protocol. IC50 (concentration causing a half-maximal inhibition of specific binding of the control) or EC50 (concentration causing a half-maximal response of specific binding of the control) and the Hill coefficient were determined by non-linear regression analysis of the competition curves generated with mean replicate values using Hill-equation curve fitting with software developed at Cerep (Celle-Lévescault, France).

[2] = molecular target: T2, potassium voltage-gated channel subfamily H member 2 (hERG) (Homo sapiens, UniProt Q12809); assay: SafetyScreen44 radioligand binding; conditions: read-out: % Inh (% inhibition of control specific binding)
T2 construct: purchased Eurofins Cerep (SafetyScreen44)
Description: as §1, §2

dopamine transporter = molecular target: T3, dopamine transporter (Homo sapiens, UniProt Q01959); assay: SafetyScreen44 radioligand binding; conditions: read-out: % Inh (% inhibition of control specific binding)
T3 construct: purchased Eurofins Cerep (SafetyScreen44)
Description: as §1, §2

κ-type opioid receptor = molecular target: T4, κ-type opioid receptor (Rattus norvegicus, UniProt P34975); assay: SafetyScreen44 radioligand binding; conditions: agonist radioligand, read-out: % Inh (% inhibition of control specific binding)
T4 construct: purchased Eurofins Cerep (SafetyScreen44)
Description: as §1, §2

glucocorticoid receptor = molecular target: T5, glucocorticoid receptor (Homo sapiens, UniProt P04150); assay: SafetyScreen44 radioligand binding; conditions: agonist radioligand, read-out: % Inh (% inhibition of control specific binding)
T5 construct: purchased Eurofins Cerep (SafetyScreen44)
Description: as §1, §2

serotonin receptor 1B = molecular target: T6, serotonin receptor 1B (Rattus norvegicus, UniProt P28564); assay: SafetyScreen44 radioligand binding; conditions: read-out: % Inh (% inhibition of control specific binding)
T6 construct: purchased Eurofins Cerep (SafetyScreen44)
Description: as §1, §2

µ -type opioid receptor = molecular target: T7, µ -type opioid receptor (Homo sapiens, UniProt P35372); assay: SafetyScreen44 radioligand binding; conditions: agonist radioligand, read-out: % Inh (% inhibition of control specific binding)
T7 construct: purchased Eurofins Cerep (SafetyScreen44)
Description: as §1, §2

androgen receptor = molecular target: T8, androgen receptor (Homo sapiens, UniProt P10275, T878A); assay: SafetyScreen44 radioligand binding; conditions: agonist radioligand, read-out: % Inh (% inhibition of control specific binding)
T8 construct: purchased Eurofins Cerep (SafetyScreen44)
Description: as §1, §2

Endothelin receptor = molecular target: T9, Endothelin receptor (Homo sapiens, UniProt P25101); assay: SafetyScreen44 radioligand binding; conditions: agonist radioligand, read-out: % Inh (% inhibition of control specific binding)
T9 construct: purchased Eurofins Cerep (SafetyScreen44)
Description: as §1, §2

vasopressin receptor = molecular target: T10, vasopressin receptor (Homo sapiens, UniProt P37288); assay: SafetyScreen44 radioligand binding; conditions: agonist radioligand, read-out: % Inh (% inhibition of control specific binding)
T10 construct: purchased Eurofins Cerep (SafetyScreen44)
Description: as §1, §2

[3] = molecular target: T11, cholecystokinin A receptor (Homo sapiens, UniProt P32238); assay: SafetyScreen44 radioligand binding; conditions: agonist radioligand, read-out: % Inh (% inhibition of control specific binding)
T11 construct: purchased Eurofins Cerep (SafetyScreen44)
Description: as §1, §2

[4] = molecular target: T12, alpha-2A adrenergic receptor (Homo sapiens, UniProt P08913); assay: SafetyScreen44 radioligand binding; conditions: read-out: % Inh (% inhibition of control specific binding)
T12 construct: purchased Eurofins Cerep (SafetyScreen44)
T12 sequence (P08913 whole entry): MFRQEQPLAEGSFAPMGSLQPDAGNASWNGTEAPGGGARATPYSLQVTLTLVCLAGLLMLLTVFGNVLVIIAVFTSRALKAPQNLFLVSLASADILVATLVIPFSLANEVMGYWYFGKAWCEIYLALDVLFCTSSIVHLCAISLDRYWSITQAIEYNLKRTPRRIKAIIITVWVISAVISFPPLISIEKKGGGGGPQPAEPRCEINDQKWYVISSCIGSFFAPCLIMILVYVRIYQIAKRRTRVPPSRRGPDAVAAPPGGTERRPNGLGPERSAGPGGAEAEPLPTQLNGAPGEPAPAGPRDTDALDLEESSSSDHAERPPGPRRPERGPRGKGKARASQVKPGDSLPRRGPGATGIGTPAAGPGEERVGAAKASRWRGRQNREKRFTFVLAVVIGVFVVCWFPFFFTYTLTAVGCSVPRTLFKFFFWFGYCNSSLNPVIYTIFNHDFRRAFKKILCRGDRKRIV
Description: as §1, §2

[5] = molecular target: T13, histamine receptor type 2 (Homo sapiens, UniProt P25021); assay: SafetyScreen44 radioligand binding; conditions: read-out: % Inh (% inhibition of control specific binding)
T13 construct: purchased Eurofins Cerep (SafetyScreen44)
T13 sequence (P25021 whole entry): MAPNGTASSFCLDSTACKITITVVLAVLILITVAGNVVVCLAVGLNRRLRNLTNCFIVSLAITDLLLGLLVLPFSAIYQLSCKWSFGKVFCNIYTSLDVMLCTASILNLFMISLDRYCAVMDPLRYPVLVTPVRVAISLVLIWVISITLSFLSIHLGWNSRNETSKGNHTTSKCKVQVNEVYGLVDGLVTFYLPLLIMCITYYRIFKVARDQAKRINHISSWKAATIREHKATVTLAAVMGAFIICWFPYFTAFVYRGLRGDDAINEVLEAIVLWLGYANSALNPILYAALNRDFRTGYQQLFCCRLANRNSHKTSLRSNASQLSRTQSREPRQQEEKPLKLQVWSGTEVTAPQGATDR
Description: as §1, §2

Monoamine oxidase A = molecular target: T14, Monoamine oxidase A (Rattus norvegicus, UniProt P21396); assay: SafetyScreen44 radioligand binding; conditions: read-out: % Inh (% inhibition of control specific binding)
T14 construct: purchased Eurofins Cerep (SafetyScreen44)
T14 sequence (P21396 whole entry): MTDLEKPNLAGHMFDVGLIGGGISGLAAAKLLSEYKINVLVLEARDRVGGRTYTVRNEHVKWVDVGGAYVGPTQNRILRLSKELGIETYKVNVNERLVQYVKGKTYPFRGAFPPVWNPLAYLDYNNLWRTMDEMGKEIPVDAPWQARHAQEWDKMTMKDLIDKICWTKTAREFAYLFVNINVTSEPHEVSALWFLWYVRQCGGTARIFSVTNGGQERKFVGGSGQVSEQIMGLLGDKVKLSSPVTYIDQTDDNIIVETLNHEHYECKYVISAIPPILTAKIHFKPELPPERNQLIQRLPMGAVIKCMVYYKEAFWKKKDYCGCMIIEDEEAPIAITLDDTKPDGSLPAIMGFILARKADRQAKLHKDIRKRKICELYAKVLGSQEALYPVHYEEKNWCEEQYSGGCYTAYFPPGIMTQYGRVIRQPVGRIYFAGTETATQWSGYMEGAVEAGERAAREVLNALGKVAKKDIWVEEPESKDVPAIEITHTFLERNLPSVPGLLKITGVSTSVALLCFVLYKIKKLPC
Description: as §1, §2

[6] = molecular target: T15, alpha 4/beta 2 nicotinic acetylcholine receptor, (neuronal) (Homo sapiens, UniProt P17787+P43681); assay: SafetyScreen44 radioligand binding; conditions: agonist radioligand, read-out: % Inh (% inhibition of control specific binding)
T15 construct: purchased Eurofins Cerep (SafetyScreen44)
T15 sequence (P43681 29-627 limits assumed): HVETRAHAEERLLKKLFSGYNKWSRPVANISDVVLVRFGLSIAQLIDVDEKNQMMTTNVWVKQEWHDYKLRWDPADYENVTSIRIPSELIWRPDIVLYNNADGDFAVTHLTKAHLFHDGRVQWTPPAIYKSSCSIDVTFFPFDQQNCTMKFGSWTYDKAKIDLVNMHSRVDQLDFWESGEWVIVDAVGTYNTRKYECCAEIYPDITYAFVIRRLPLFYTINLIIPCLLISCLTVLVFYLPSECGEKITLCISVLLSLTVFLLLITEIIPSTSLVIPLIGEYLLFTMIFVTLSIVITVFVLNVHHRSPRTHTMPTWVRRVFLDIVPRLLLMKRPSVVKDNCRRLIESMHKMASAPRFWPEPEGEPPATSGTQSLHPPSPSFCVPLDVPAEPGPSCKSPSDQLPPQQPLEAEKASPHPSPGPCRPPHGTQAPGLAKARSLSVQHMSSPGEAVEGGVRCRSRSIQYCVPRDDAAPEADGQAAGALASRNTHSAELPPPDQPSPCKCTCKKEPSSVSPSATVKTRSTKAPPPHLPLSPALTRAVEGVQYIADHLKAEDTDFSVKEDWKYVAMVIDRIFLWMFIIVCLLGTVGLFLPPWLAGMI
T15 sequence (P17787 26-502): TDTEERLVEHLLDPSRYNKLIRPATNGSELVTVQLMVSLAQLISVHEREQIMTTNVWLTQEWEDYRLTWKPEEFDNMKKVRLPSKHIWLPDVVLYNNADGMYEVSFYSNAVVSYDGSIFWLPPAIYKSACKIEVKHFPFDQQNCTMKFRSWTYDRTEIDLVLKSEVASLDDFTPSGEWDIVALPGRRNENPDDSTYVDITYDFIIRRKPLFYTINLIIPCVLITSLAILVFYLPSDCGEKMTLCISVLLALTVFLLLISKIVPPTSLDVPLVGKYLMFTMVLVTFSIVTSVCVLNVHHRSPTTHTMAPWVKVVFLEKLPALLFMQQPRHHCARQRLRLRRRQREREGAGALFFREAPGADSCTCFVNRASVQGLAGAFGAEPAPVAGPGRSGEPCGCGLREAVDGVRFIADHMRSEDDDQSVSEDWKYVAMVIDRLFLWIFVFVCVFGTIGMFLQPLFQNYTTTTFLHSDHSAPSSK
Description: as §1, §2

dopamine receptor type 2 = molecular target: T16, dopamine receptor type 2 (Homo sapiens, UniProt P14416); assay: SafetyScreen44 radioligand binding; conditions: agonist radioligand, read-out: % Inh (% inhibition of control specific binding)
T16 construct: purchased Eurofins Cerep (SafetyScreen44)
Description: as §1, §2

serotonin receptor 2B = molecular target: T17, serotonin receptor 2B (Homo sapiens, UniProt P41595); assay: SafetyScreen44 radioligand binding; conditions: agonist radioligand, read-out: % Inh (% inhibition of control specific binding)
T17 construct: purchased Eurofins Cerep (SafetyScreen44)
Description: as §1, §2

serotonin receptor 2A = molecular target: T18, serotonin receptor 2A (Homo sapiens, UniProt P28223); assay: SafetyScreen44 radioligand binding; conditions: agonist radioligand, read-out: % Inh (% inhibition of control specific binding)
T18 construct: purchased Eurofins Cerep (SafetyScreen44)
Description: as §1, §2

[7] = molecular target: T19, muscarinic acetylcholine receptor type 3 (Homo sapiens, UniProt P20309); assay: SafetyScreen44 radioligand binding; conditions: read-out: % Inh (% inhibition of control specific binding)
T19 construct: purchased Eurofins Cerep (SafetyScreen44)
Description: as §1, §2

5-HT transporter = molecular target: T20, 5-HT transporter (Homo sapiens, UniProt P31645); assay: SafetyScreen44 radioligand binding; conditions: read-out: % Inh (% inhibition of control specific binding)
T20 construct: purchased Eurofins Cerep (SafetyScreen44)
T20 sequence (P31645 whole entry): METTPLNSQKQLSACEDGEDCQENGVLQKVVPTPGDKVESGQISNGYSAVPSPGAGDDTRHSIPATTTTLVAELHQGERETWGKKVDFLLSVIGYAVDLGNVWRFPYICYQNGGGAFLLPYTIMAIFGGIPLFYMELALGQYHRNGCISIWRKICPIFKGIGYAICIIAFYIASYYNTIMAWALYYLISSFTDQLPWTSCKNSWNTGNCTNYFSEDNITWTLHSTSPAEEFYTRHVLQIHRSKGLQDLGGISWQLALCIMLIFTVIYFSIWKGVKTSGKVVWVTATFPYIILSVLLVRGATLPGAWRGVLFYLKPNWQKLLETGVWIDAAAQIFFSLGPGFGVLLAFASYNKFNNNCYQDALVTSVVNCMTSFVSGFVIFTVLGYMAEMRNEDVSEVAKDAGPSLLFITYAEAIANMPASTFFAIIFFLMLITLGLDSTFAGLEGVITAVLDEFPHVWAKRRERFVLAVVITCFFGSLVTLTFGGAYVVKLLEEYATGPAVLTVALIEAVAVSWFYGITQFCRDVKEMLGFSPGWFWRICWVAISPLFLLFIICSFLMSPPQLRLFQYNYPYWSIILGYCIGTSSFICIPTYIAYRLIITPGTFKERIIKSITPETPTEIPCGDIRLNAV
Description: as §1, §2

[8] = molecular target: T21, muscarinic acetylcholine receptor type 1 (Homo sapiens, UniProt P11229); assay: SafetyScreen44 radioligand binding; conditions: read-out: % Inh (% inhibition of control specific binding)
T21 construct: purchased Eurofins Cerep (SafetyScreen44)
T21 sequence (P11229 whole entry): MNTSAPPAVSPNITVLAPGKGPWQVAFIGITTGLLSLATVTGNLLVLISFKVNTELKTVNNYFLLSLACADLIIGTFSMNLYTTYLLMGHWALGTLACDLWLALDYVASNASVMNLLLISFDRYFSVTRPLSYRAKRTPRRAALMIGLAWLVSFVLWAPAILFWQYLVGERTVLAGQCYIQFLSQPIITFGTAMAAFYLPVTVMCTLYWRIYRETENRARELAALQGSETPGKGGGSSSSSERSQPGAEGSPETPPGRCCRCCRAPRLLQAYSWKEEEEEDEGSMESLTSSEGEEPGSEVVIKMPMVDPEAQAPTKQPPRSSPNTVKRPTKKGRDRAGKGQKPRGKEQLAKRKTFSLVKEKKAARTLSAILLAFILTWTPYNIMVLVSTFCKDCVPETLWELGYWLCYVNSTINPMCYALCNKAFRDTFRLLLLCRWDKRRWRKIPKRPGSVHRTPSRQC
Description: as §1, §2

[9] = molecular target: T22, cannabinoid receptor type 1 (Homo sapiens, UniProt P21554); assay: SafetyScreen44 radioligand binding; conditions: agonist radioligand, read-out: % Inh (% inhibition of control specific binding)
T22 construct: purchased Eurofins Cerep (SafetyScreen44)
Description: as §1, §2

dopamine receptor type 1 = molecular target: T23, dopamine receptor type 1 (Homo sapiens, UniProt P21728); assay: SafetyScreen44 radioligand binding; conditions: read-out: % Inh (% inhibition of control specific binding)
T23 construct: purchased Eurofins Cerep (SafetyScreen44)
T23 sequence (P21728 whole entry): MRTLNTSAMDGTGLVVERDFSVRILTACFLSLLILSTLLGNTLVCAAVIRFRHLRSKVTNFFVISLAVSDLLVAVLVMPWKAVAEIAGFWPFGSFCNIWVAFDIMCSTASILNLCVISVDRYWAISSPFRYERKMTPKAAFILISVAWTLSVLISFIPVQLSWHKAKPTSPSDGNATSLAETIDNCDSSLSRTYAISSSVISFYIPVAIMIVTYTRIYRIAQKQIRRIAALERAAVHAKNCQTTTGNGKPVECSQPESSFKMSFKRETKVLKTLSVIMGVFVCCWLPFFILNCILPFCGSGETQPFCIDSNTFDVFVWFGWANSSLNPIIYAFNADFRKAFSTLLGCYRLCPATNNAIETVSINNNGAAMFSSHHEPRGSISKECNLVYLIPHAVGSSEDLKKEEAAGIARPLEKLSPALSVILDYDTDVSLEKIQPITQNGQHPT
Description: as §1, §2

[10] = molecular target: T24, alpha-1A adrenergic receptor (Homo sapiens, UniProt P35348); assay: SafetyScreen44 radioligand binding; conditions: read-out: % Inh (% inhibition of control specific binding)
T24 construct: purchased Eurofins Cerep (SafetyScreen44)
Description: as §1, §2

[11] = molecular target: T25, δ-type opioid receptor ẟ2 (Homo sapiens, UniProt P41143); assay: SafetyScreen44 radioligand binding; conditions: agonist radioligand, read-out: % Inh (% inhibition of control specific binding)
T25 construct: purchased Eurofins Cerep (SafetyScreen44)
T25 sequence (P41143 whole entry): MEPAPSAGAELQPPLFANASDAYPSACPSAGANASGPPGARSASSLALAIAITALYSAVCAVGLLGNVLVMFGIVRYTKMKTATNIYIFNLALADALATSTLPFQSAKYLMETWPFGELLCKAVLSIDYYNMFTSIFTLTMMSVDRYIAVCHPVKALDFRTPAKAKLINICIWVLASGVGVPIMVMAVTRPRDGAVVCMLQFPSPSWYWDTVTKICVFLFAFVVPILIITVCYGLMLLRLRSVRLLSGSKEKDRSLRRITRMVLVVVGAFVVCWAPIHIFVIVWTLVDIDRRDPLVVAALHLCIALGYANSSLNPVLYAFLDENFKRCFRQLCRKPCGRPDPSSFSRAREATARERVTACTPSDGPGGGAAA
Description: as §1, §2

[12] = molecular target: T26, norepinephrine transporter (Homo sapiens, UniProt P23975); assay: SafetyScreen44 radioligand binding; conditions: read-out: % Inh (% inhibition of control specific binding)
T26 construct: purchased Eurofins Cerep (SafetyScreen44)
T26 sequence (P23975 whole entry): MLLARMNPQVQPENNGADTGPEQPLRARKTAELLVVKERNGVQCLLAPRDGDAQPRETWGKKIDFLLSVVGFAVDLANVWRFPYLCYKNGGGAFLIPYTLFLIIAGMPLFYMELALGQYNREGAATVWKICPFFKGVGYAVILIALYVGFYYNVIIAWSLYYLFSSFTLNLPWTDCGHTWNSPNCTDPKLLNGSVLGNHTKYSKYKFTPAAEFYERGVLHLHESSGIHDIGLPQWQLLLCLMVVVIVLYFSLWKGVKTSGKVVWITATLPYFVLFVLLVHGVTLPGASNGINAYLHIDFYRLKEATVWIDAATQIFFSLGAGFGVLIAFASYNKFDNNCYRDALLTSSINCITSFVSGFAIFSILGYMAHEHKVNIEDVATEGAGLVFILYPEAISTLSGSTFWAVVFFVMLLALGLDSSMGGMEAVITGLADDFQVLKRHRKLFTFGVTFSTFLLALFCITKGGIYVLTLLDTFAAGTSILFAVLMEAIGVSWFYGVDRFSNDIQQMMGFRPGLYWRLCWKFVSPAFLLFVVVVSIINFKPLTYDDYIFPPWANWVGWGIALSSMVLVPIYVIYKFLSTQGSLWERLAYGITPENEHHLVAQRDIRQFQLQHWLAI
Description: as §1, §2

adenosine A2A receptor = molecular target: T27, adenosine A2A receptor (Homo sapiens, UniProt P29274); assay: SafetyScreen44 radioligand binding; conditions: agonist radioligand, read-out: % Inh (% inhibition of control specific binding)
T27 construct: purchased Eurofins Cerep (SafetyScreen44)
Description: as §1, §2

[13] = molecular target: T28, cannabinoid receptor type 2 (Homo sapiens, UniProt P34972); assay: SafetyScreen44 radioligand binding; conditions: agonist radioligand, read-out: % Inh (% inhibition of control specific binding)
T28 construct: purchased Eurofins Cerep (SafetyScreen44)
Description: as §1, §2

Wistar Han rats = assay: Glucose tolerance test; type: in vivo; conditions: 0.3 mg/kg, 1 mg/kg, and 3 mg/kg, p.o., 2 h before glucose bolus, n = 8
Description: Thirty-two male Wistar Han rats (∼10 weeks; Tri-City Academic Laboratory Animal Centre-Research and Services Centre, Medical University of Gdansk) were fasted for 16 h before experimentation. Animals underwent gavage with CPL500036 (0.3 mg/kg, 1 mg/kg or 3 mg/kg) or vehicle 2 h before receiving a glucose bolus (2 g/kg, i.p.; MilliporeSigma). Olanzapine (10 mg/kg) was used as an active comparator and delivered (s.c.) 30 min before the glucose bolus. Blood samples from the tail vein were collected from each rat right before drug administration, just before glucose loading as well as 15 min, 30 min, 60 min, 120 min, and 180 min after glucose administration. The glucose concentration was measured using a glucometer (Accu-ChekGo, Roche Diagnostics, Mannheim, Germany).

[14] = With metabolic activation (+S9 mix), 2AA 2µg/plate
[15] = Without metabolic activation (-S9 mix), 9AA 50µg/plate

Cc1ncc(C)n2nc(-c3ccn4cc(-c5ccccc5)nc4n3)nc12 [CPL500036, 7-[5,8-Dimethyl-(1,2,4)triazolo (1,5-a)pyrazin-2-yl]-2-phenylimidazo (1,2-a) pyrimidine]
Mutation rate [1, 14]: 0.69
Revertants Mean±SD [1, 14]: 6.0±5.20
Mutation rate [1, 15]: 0.71
Revertants Mean±SD [1, 15]: 4.0±4.36
inhibition at 1 µM (serotonin receptor 1A): 5.4%
inhibition at 1 µM [2]: -19.6%
inhibition at 1 µM (dopamine transporter): -6.9%
inhibition at 1 µM (κ-type opioid receptor): 7.7%
inhibition at 1 µM (glucocorticoid receptor): -3.2%
inhibition at 1 µM (serotonin receptor 1B): -7.3%
inhibition at 1 µM (µ -type opioid receptor): -1.1%
inhibition at 1 µM (androgen receptor): 5.3%
inhibition at 1 µM (Endothelin receptor): -16.8%
inhibition at 1 µM (vasopressin receptor): -0.8%
inhibition at 1 µM [3]: -8.2%
inhibition at 1 µM [4]: 0.4%
inhibition at 1 µM [5]: 1.8%
inhibition at 1 µM (Monoamine oxidase A): 1%
inhibition at 1 µM [6]: -6.1%
inhibition at 1 µM (dopamine receptor type 2): -14.4%
inhibition at 1 µM (serotonin receptor 2B): 10.6%
inhibition at 1 µM (serotonin receptor 2A): -8.6%
inhibition at 1 µM [7]: 0.7%
inhibition at 1 µM (5-HT transporter): -9.5%
inhibition at 1 µM [8]: -19.7%
inhibition at 1 µM [9]: 8.8%
inhibition at 1 µM (dopamine receptor type 1): -8.2%
inhibition at 1 µM [10]: 1.8%
inhibition at 1 µM [11]: 6.9%
inhibition at 1 µM [12]: -14.5%
inhibition at 1 µM (adenosine A2A receptor): -8.1%
inhibition at 1 µM [13]: -14.6%
effect on the glucose level, glucose-tolerance test (Wistar Han rats): has no effect on the glucose level
